According to PubChem BioAssay (NCI):
Values joined by “and” are separate entries in the source; they are usually repeats but may differ in a detail not shown here. Identical values can stand only once.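 Dose response: 5 concentrations. Exposure: 48 h. Format: 96-well plates. Endpoint: linear interpolation; highest concentration if not reached. Abbreviation: GI50, concentration required for 50% inhibition of growth. TGI marks complete inhibition of growth.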

What was measured:
Assay in all cases: NCI tumour cell line growth inhibition, 48 h
NCI-H226 lung = test system: NCI-H226 lung
HOP-62 NSCLC = test system: HOP-62 NSCLC
MDA-MB-231 breast = test system: MDA-MB-231 breast
IGROV1 ovarian = test system: IGROV1 ovarian
A549 NSCLC = test system: A549 NSCLC
T-47D breast = test system: T-47D breast
SK-MEL-2 melanoma = test system: SK-MEL-2 melanoma
PC-3 prostate = test system: PC-3 prostate
786-0 renal = test system: 786-0 renal
OVCAR-5 ovarian = test system: OVCAR-5 ovarian

O=[N+]([O-])c1ccc2ncccc2c1Cl
GI50 (NCI-H226 lung): 6.22 µM
TGI (NCI-H226 lung): > 100 µM
GI50 (HOP-62 NSCLC): 5.64 µM
TGI (HOP-62 NSCLC): > 100 µM
GI50 (MDA-MB-231 breast): 3.46 µM
TGI (MDA-MB-231 breast): 11.9 µM
GI50 (IGROV1 ovarian): 3.89 µM
TGI (IGROV1 ovarian): 13.8 µM
GI50 (A549 NSCLC): 3.29 µM
TGI (A549 NSCLC): > 100 µM
GI50 (T-47D breast): 11.2 µM
TGI (T-47D breast): 42.1 µM
GI50 (SK-MEL-2 melanoma): 9.21 µM
TGI (SK-MEL-2 melanoma): 30.5 µM
GI50 (PC-3 prostate): 3.75 µM
TGI (PC-3 prostate): 20.2 µM
GI50 (786-0 renal): 3.28 µM
TGI (786-0 renal): 20.4 µM
GI50 (OVCAR-5 ovarian): 3.44 µM
TGI (OVCAR-5 ovarian): > 100 µM

COc1ccc2c(c1)[n+](=O)c(C(=O)/C=C/c1cc(OC)c(OC)c(OC)c1)c(C)n2[O-]
GI50 (NCI-H226 lung): 26.3 µM
TGI (NCI-H226 lung): 82.4 µM
GI50 (HOP-62 NSCLC): 18.7 µM
TGI (HOP-62 NSCLC): 37.2 µM
GI50 (MDA-MB-231 breast): 13.5 µM
TGI (MDA-MB-231 breast): 35.2 µM
GI50 (IGROV1 ovarian): 20.7 µM
TGI (IGROV1 ovarian): 42 µM
GI50 (A549 NSCLC): 34.9 µM
TGI (A549 NSCLC): > 100 µM
GI50 (T-47D breast): 22.8 µM
TGI (T-47D breast): > 100 µM
GI50 (SK-MEL-2 melanoma): 33.7 µM
TGI (SK-MEL-2 melanoma): > 100 µM
GI50 (PC-3 prostate): 27.3 µM
TGI (PC-3 prostate): > 100 µM
GI50 (786-0 renal): 12.8 µM
TGI (786-0 renal): 30.7 µM
GI50 (OVCAR-5 ovarian): 20.8 µM
TGI (OVCAR-5 ovarian): 62.9 µM

Nc1nc(N)c2nc(CNc3ccc(C(=O)NC(CCCNC(=O)c4ccccc4C(=O)O)C(=O)O)cc3)cnc2n1 (configuration not stated)
GI50 (NCI-H226 lung): > 100 µM
TGI (NCI-H226 lung): > 100 µM
GI50 (HOP-62 NSCLC): < 0.02 µM and 0.00449 µM and < 0.0546 µM
TGI (HOP-62 NSCLC): > 100 µM
TGI (MDA-MB-231 breast): > 100 µM
GI50 (IGROV1 ovarian): 0.0249 µM
TGI (IGROV1 ovarian): > 100 µM
GI50 (A549 NSCLC): 0.00379 µM
TGI (A549 NSCLC): > 100 µM
TGI (T-47D breast): > 100 µM
GI50 (SK-MEL-2 melanoma): > 100 µM
TGI (SK-MEL-2 melanoma): > 100 µM
TGI (PC-3 prostate): > 100 µM
GI50 (786-0 renal): 0.00054 µM
TGI (786-0 renal): > 100 µM
GI50 (OVCAR-5 ovarian): 0.00196 µM
TGI (OVCAR-5 ovarian): > 100 µM

COC1=Nc2ccccc2S(=O)(=O)C=C1
TGI (NCI-H226 lung): > 100 µM
TGI (HOP-62 NSCLC): > 100 µM
TGI (MDA-MB-231 breast): 27.2 µM
TGI (IGROV1 ovarian): 28.1 µM
TGI (A549 NSCLC): 36.9 µM
TGI (T-47D breast): 14.2 µM
TGI (SK-MEL-2 melanoma): 35.8 µM
TGI (PC-3 prostate): 28.7 µM
TGI (786-0 renal): 10.1 µM
TGI (OVCAR-5 ovarian): 31.1 µM

C#CCOc1cccc(Nc2ncnc3ccc(NC(=O)CCl)cc23)c1
GI50 (NCI-H226 lung): 7.43 µM
TGI (NCI-H226 lung): > 100 µM
GI50 (HOP-62 NSCLC): 4.2 µM
TGI (HOP-62 NSCLC): > 53.2 µM
GI50 (MDA-MB-231 breast): 1.07 µM
TGI (MDA-MB-231 breast): 30.8 µM
GI50 (IGROV1 ovarian): 0.164 µM
TGI (IGROV1 ovarian): 2.77 µM
GI50 (A549 NSCLC): 0.225 µM
TGI (A549 NSCLC): > 44 µM
GI50 (T-47D breast): 3.44 µM
TGI (T-47D breast): 30.9 µM
GI50 (SK-MEL-2 melanoma): 4.07 µM
TGI (SK-MEL-2 melanoma): 24.1 µM
GI50 (PC-3 prostate): 0.581 µM
TGI (PC-3 prostate): 12.4 µM
GI50 (786-0 renal): 0.208 µM
TGI (786-0 renal): 2.84 µM
GI50 (OVCAR-5 ovarian): 3.04 µM
TGI (OVCAR-5 ovarian): 19.4 µM

O=C(O)C1(Cc2cccc(Nc3nccs3)n2)CCC(Oc2cccc(Cl)c2F)CC1 (configuration not stated)
GI50 (NCI-H226 lung): 11.6 µM
TGI (NCI-H226 lung): 39.6 µM
GI50 (HOP-62 NSCLC): 6.77 µM
TGI (HOP-62 NSCLC): 56.2 µM
GI50 (MDA-MB-231 breast): 14.7 µM
TGI (MDA-MB-231 breast): 41.6 µM
GI50 (IGROV1 ovarian): 15.9 µM
TGI (IGROV1 ovarian): 53.1 µM
GI50 (A549 NSCLC): 5.8 µM
TGI (A549 NSCLC): > 60 µM
GI50 (T-47D breast): 15.8 µM
TGI (T-47D breast): > 100 µM
GI50 (SK-MEL-2 melanoma): 17.6 µM
TGI (SK-MEL-2 melanoma): 36.4 µM
GI50 (PC-3 prostate): 17.4 µM
TGI (PC-3 prostate): 84.3 µM
GI50 (786-0 renal): 15.5 µM
TGI (786-0 renal): 40.3 µM
GI50 (OVCAR-5 ovarian): 13.8 µM
TGI (OVCAR-5 ovarian): > 81.7 µM

COc1ccc(-c2cc(=O)c3c(O)cc(C)cc3o2)cc1OC
TGI (NCI-H226 lung): > 100 µM
TGI (HOP-62 NSCLC): > 100 µM
TGI (MDA-MB-231 breast): > 100 µM
TGI (IGROV1 ovarian): > 100 µM
TGI (A549 NSCLC): > 100 µM
TGI (T-47D breast): > 100 µM
TGI (SK-MEL-2 melanoma): > 100 µM
TGI (PC-3 prostate): > 100 µM
TGI (786-0 renal): > 100 µM
TGI (OVCAR-5 ovarian): > 100 µM
